Laboratory results published in PubChem BioAssay AID2060484 (Molecular Pharmacology Branch, DTP, NCI, 2025).

Tested on: SUM149PT spheroids with HUVEC/MSC, viability
Assay: Anticancer human tumor SUM149PT cell line growth inhibition [GQUAD];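 also: spheroids exposed to drugs for seven days before readout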;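 as to viability, T/C: percent viability relative to DMSO vehicle control taken as 100%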
Details: for IC50: curve of first compound; for viability, T/C: stronger effect = lower value
Source text: DNA G-quadruplex Stabilizer Agents in Combinations in Complex Spheroids
A high-throughput screen of multi-cell type tumor spheroids was designed to identify active combinations of DNA G-quadruplex stabilizer agents and targeted small molecules. Complex spheroids include a stromal component modeled by human endothelial cells (HUVEC) and fibroblasts modeled by human mesenchymal stem cells (MSCs). The concentration ranges selected for each drug and investigational agent were based upon clinically achievable concentrations if the clinical Cmax of the agent was known.
Compounds. The drugs and investigational agents: pidnarulex (CX-5461; NSC782164), APTO-253 (NSC789042), BRACO-19 (NSC847499), peposertib (NSC802822), ceralasertib (NSC780249), elimusertib (NSC800525), camonsertib (NSC841442), AZD-1390 (NSC803789), olaparib (NSC753686), talazoparib (NSC767125), ART-558 (NSC835418), sotorasib (NSC818433), MRTX-1133 (NSC836407), SN-38 (NSC673596), topotecan (NSC609699), etoposide (NSC141540), doxorubicin (NSC123127), gemcitabine (NSC613327), 5-fluorouracil (NSC19893), paclitaxel (NSC125973), vemurafenib (NSC761431), panobinostat (NSC761190), R-306465 (JNJ-16241199; NSC773264), adavosertib (NSC754352), TP-3654 (NSC805149), carboplatin (NSC241240), KSQ-4279 (NSC840948), and staurosporine (NSC755774) were obtained from the National Cancer Institute (NCI) Developmental Therapeutics Program Chemical Repository (34). The FDA-approved anticancer drug set is available from the NCI Developmental Therapeutics Program. […] The stock solutions were prepared in dimethyl sulfoxide (DMSO, Sigma-Aldrich, St. Louis, MO, cat. D2650) at 800-fold the tested concentration and stored at -70 degrees C prior to their use. All drugs and investigational agents were tested over a range starting from a high concentration at or near the clinical Cmax and decreasing in half-log increments. If the clinical Cmax for an agent had not been determined, the highest concentration tested was 10 microM.
2.3 Cell Culture. All cells were maintained in an incubator at 37 degrees C and 5% CO2 with 95% humidity. The PDC lines were cultured according to standard operating procedures established by the NCI PDMR. All PDCs were thawed and cultured in Matrigel-coated flasks prepared with a working solution of 1X Ham's F-12 nutrient mix, without supplementation (Invitrogen, cat. 11765054), 100 U/mL penicillin-streptomycin (Invitrogen, cat. 15140122), and 2.5% Matrigel (Corning Inc., cat. 354248) for the first three passages. The 857933-349-R-J2-PDC line was cultured in 6C/Colon 1B media, which includes advanced DMEM/F-12 (Thermo Fisher Scientific, cat. 12634028), 10 mM HEPES (Thermo Fisher Scientific, cat. 15630080), 1X GlutaMAX supplement (Thermo Fisher Scientific, cat. 35050061), 0.1 mg/mL primocin (InvivoGen, cat. ant-pm-2), 10% defined fetal bovine serum, heat inactivated (HyClone Laboratories Inc., cat. SH30070.03HI), 50% L-WRN conditioned media (ATCC, cat. CRL-3276), 1.25 mM N-Acetyl-L-cysteine (Sigma-Aldrich, cat. A9165), 10 mM nicotinamide (Sigma-Aldrich, cat. N0636), 1X B-27 supplement (Thermo Fisher Scientific, cat. 17504044), 1X N-2 supplement (Thermo Fisher Scientific, cat. 17502048), 10 microM Y-27632 dihydrochloride (Tocris Bioscience, cat. 1254), and 50 ng/mL human EGF recombinant protein (Thermo Fisher Scientific, cat. PHG0311). The 485176-168-R4-J1-PDC line was cultured in Panc media, which includes all 6C/Colon 1B media components plus 100 ng/mL human FGF-10 (Thermo Fisher Scientific, cat. 100-26), 500 nM SB-431542 (Selleckchem, cat. S1067), and gastrin (Tocris, cat. 3006).
[…]

Question: How did the IC50 (second compound 0.0316 µM) turn out when C#Cc1c(F)ccc2cc(O)cc(-c3ncc4c(N5CC6CCC(C5)N6)nc(OCC56CCCN5CC(F)C6)nc4c3F)c12 (configuration not stated) + CN(C)c1ccc(Nc2c3ccc(NC(=O)CCN4CCCC4)cc3nc3cc(NC(=O)CCN4CCCC4)ccc23)cc1 was run?
Answer: 5.27 µM

Question: And the IC50 (second compound 0.1 µM)?
Answer: 7.47 µM

Question: What about the IC50 (second compound 0.316 µM) of the same compound?
Answer: 2.45 µM

Question: And the IC50 (second compound 1 µM)?
Answer: 4.57 µM

Question: What about the IC50 (second compound 3.16 µM) of the same compound?
Answer: 1.57 µM

Question: And the IC50 (second compound 10 µM)?
Answer: 1.71 µM

Question: What about the viability, T/C (second compound 0.0316 µM, first compound 0.0316 µM) of the same compound?
Answer: 100%

Question: What about the viability, T/C (second compound 0.0316 µM, first compound 0.1 µM) of the same compound?
Answer: 93.3%

Question: And the viability, T/C (second compound 0.0316 µM, first compound 0.316 µM)?
Answer: 73.5%

Question: What about the viability, T/C (second compound 0.0316 µM, first compound 1 µM) of the same compound?
Answer: 73.8%

Question: And the viability, T/C (second compound 0.0316 µM, first compound 3.16 µM)?
Answer: 57.2%

Question: And the viability, T/C (second compound 0.0316 µM, first compound 10 µM)?
Answer: 40.8%

Question: And the viability, T/C (second compound 0.1 µM, first compound 0.0316 µM)?
Answer: 107%

Question: And the viability, T/C (second compound 0.1 µM, first compound 0.1 µM)?
Answer: 102%

Question: What about the viability, T/C (second compound 0.1 µM, first compound 0.316 µM) of the same compound?
Answer: 88.1%

Question: And the viability, T/C (second compound 0.1 µM, first compound 1 µM)?
Answer: 66.3%

Question: And the viability, T/C (second compound 0.1 µM, first compound 3.16 µM)?
Answer: 58.1%

Question: What about the viability, T/C (second compound 0.1 µM, first compound 10 µM) of the same compound?
Answer: 46.6%

Question: And the viability, T/C (second compound 0.316 µM, first compound 0.0316 µM)?
Answer: 93.6%

Question: What about the viability, T/C (second compound 0.316 µM, first compound 0.1 µM) of the same compound?
Answer: 83.9%

Question: What about the viability, T/C (second compound 0.316 µM, first compound 0.316 µM) of the same compound?
Answer: 68.7%

Question: And the viability, T/C (second compound 0.316 µM, first compound 1 µM)?
Answer: 57.1%

Question: What about the viability, T/C (second compound 0.316 µM, first compound 3.16 µM) of the same compound?
Answer: 49.6%

Question: What about the viability, T/C (second compound 0.316 µM, first compound 10 µM) of the same compound?
Answer: 38.6%

Question: What about the viability, T/C (second compound 1 µM, first compound 0.0316 µM) of the same compound?
Answer: 75.5%

Question: What about the viability, T/C (second compound 1 µM, first compound 0.1 µM) of the same compound?
Answer: 82.8%

Question: And the viability, T/C (second compound 1 µM, first compound 0.316 µM)?
Answer: 77.2%

Question: And the viability, T/C (second compound 1 µM, first compound 1 µM)?
Answer: 61.3%

Question: And the viability, T/C (second compound 1 µM, first compound 3.16 µM)?
Answer: 61.1%

Question: And the viability, T/C (second compound 1 µM, first compound 10 µM)?
Answer: 34.1%

Question: What about the viability, T/C (second compound 3.16 µM, first compound 0.0316 µM) of the same compound?
Answer: 88.2%

Question: And the viability, T/C (second compound 3.16 µM, first compound 0.1 µM)?
Answer: 81.6%

Question: And the viability, T/C (second compound 3.16 µM, first compound 0.316 µM)?
Answer: 73.3%

Question: What about the viability, T/C (second compound 3.16 µM, first compound 1 µM) of the same compound?
Answer: 51.3%

Question: What about the viability, T/C (second compound 3.16 µM, first compound 3.16 µM) of the same compound?
Answer: 45.2%

Question: And the viability, T/C (second compound 3.16 µM, first compound 10 µM)?
Answer: 31%

Question: And the viability, T/C (second compound 10 µM, first compound 0.0316 µM)?
Answer: 80.7%

Question: What about the viability, T/C (second compound 10 µM, first compound 0.1 µM) of the same compound?
Answer: 86.6%

Question: And the viability, T/C (second compound 10 µM, first compound 0.316 µM)?
Answer: 62.8%

Question: And the viability, T/C (second compound 10 µM, first compound 1 µM)?
Answer: 56.3%

Question: What about the viability, T/C (second compound 10 µM, first compound 3.16 µM) of the same compound?
Answer: 45%

Question: And the viability, T/C (second compound 10 µM, first compound 10 µM)?
Answer: 19%
